Laboratory results: paper PMC9822270, “Modulation Effect on Tubulin Polymerization, Cytotoxicity and Antioxidant Activity of 1H-Benzimidazole-2-Yl Hydrazones” (Molecules, 2022)
Several values for one entry are separate records, joined by “and”; a condition that tells them apart may be missing. Identical values can stand only once. Entries after “also recorded” stand apart in the source; their conditions may differ. Like-named read-outs stand apart in the source and are kept apart here.

Assays:
[1] = tested on: AR-230 (BCR-ABL positive chronic myeloid leukemia); test: MTT cytotoxicity assay, AR-230; type: cell-based, human; conditions: for IC50: Homo sapiens, read-out: IC50 AR-230
Source text: (§1) A standard colorimetric MTT assay was used to evaluate the anticancer activity of the newly synthesized 1H-benzimidazol-2-yl hydrazone derivatives against human malignant cell lines of different histological origin, namely MCF-7 (ER-positive breast adenocarcinoma) and AR-230 (BCR-ABL positive chronic myeloid leukemia), using podophyllotoxin as a reference drug. For each compound, the half-inhibitory concentrations (IC50) were estimated based on the derived “dose–response” relationships following 72h exposure time. In addition, their cytotoxicity was measured against normal fibroblast cells 3T3 (mouse embryo fibroblasts) and CCL-1 (murine fibroblasts) and respective cancer selectivity indices (CSI) were calculated (Table 2).
(§2) The cell lines MCF-7, AR-231 and CCL-1 were obtained from the German Collection of Microorganisms and Cell Cultures. Cells were kept in a controlled environment—RPMI-1640 medium supplemented with 10% fetal bovine serum (FBS) and 2mM L-glutamine, at 37 °C in an incubator with 5% CO2 humidified atmosphere.
(§3) MTT-based colorimetric assay was used for evaluating the cell viability. The method is based on the reduction of the yellow tetrazolium compound MTT to water-insoluble, violet formazan crystals. MCF-7, AR-231, and CCL-1 cells were seeded in 96-well, flatbottomed microplates (100 µL/well) at a density of 3 × 10^5 cells per mL and allowed to grow for 24 h prior the exposure to the studied compounds. Cells were exposed to the tested agents for 72 h. After the exposure period MTT solution (10 mg.mL^−1) aliquots (100 µL/well) were added to each well. The plates were further incubated for 4 h at 37 °C and the MTT-formazan crystals formed were dissolved through addition of […] of 5% HCOOH in 2-propanol. The absorption was measured at 580 nm using a microplate reader (Labexim LMR-1).

porcine brain tubulin = biological target: T1, porcine brain tubulin (Sus scrofa, UniProt P02550+P02554); test: In vitro tubulin polymerization assay (turbidity at 340 nm); type: biochemical; conditions: 10 µM compound; for Initial Rate of the Exponential Phase, Signal Response / Lag Time: 37 °C, 90 min, turbidity 340 nm
T1 construct: The standard reaction mixture contains 95 μL of 4 mg.mL^−1 porcine brain tubulin; purchased Cytoskeleton, USA BK004P; host or cells: porcine brain (tissue-purified)
Method: The ability of the compounds to modulate the polymerization of tubulin was evaluated in vitro on purified porcine tubulin by spectrophotometric monitoring at 340 nm and compared to those of nocodazole and paclitaxel as reference compounds. Nocodazole which inhibits the assembly of tubulin was used as a positive control, and paclitaxel which is a stabilizing agent of tubulin polymerization was used as a negative control. Tubulin polymerization was determined with 10 µM of the reference drugs and compounds 1a–l for 90 min.
Figure 3 Porcine brain tubulin (final […]) in presence of PB-GTP buffer, 10 µM paclitaxel, 10 µM nocodazole and 10 µM of the assayed compounds. Reaction was conducted in thermostated spectrophotometric chamber at 37 °C for 90 min. Turbidity was measured at 340 nm every 30 s.
The effect of the studied compounds on the polymerization of purified porcine tubulin was monitored using a commercial assay kit (cat. number BK004P), purchased from Cytoskeleton, USA. Stock solutions of porcine brain tubulin solutions (4 mg.mL^−1) were prepared immediately prior to use in general tubulin buffer (80 mM piperazine-N,N′-bis(2-ethanesulfonic acid, PIPES) pH 6.9, 2 mM MgCl2 and 0.5 mM (ethylene glycol-bis(β-aminoethyl ether)-N,N,N′,N′-tetraacetic acid, EGTA) containing 1 mM guanosine triphosphate (GTP) (G-PEM buffer). Stock solutions of Paclitaxel (100 µM), Noconazole (100 µM) or tested samples (100 µM) in G-PEM buffer containing 5% DMSO were prepared.
The standard reaction mixture contains 95 μL of 4 mg.mL^−1 porcine brain tubulin and 5 μL of standards, test samples or G-PEM buffer only (control). Then, the microplate with loaded reaction mixtures was incubated for 90 min. at 37 °C in a thermostated spectrophotometer chamber. The turbidity of the mixtures was measured at 340 nm every 30 s. The experiment was performed on SpectroStar Nano (BMG Labtech, Aylesbury, UK) equipped with software for kinetic measurements.

[2] = tested on: MCF-7 (ER-positive breast adenocarcinoma); test: MTT cytotoxicity assay, MCF-7; type: cell-based, human; conditions: for IC50: Homo sapiens, read-out: IC50 MCF-7
Source text: as §1, §2, §3

[3] = tested on: 3T3 (mouse embryo fibroblasts); test: Cytotoxicity against normal 3T3 cells; type: cell-based; conditions: normal mouse embryo fibroblast cell line; ± SD
Source text: as §1
Evaluation of the cytotoxic activity of some of the compounds was performed on 3T3 (mouse embryo fibroblasts) cell line. The cells were cultivated in Dulbecco′s Modified Eagle′s Medium (DMEM), containing 10% FBS, with supplements L-glutamine, sodium pyruvate, antibiotic and non-essential amino acids, and allowed to adhere overnight at 37 °C in an incubator with 5% CO2 humidified atmosphere. At the end of the incubation, the cells were treated with different concentrations of the compounds in a final volume of 100 μL/well in triplicate wells for each treatment for 24 h at 37 °C in a CO2 incubator. All studies were repeated at least twice. Control cells were grown in DMEM containing 10% FBS and allowed to stabilize overnight at 37 °C in a CO2 incubator and left without treatment.

[4] = tested on: CCL-1 (murine fibroblasts); test: MTT cytotoxicity against normal CCL-1 cells; type: cell-based; conditions: Mus musculus, 72 h, read-out: IC50 CCL-1
Source text: as §1, §2, §3

[5] = normal murine fibroblast cell line, MTT, ± SD

T1 sequence (P02550 whole entry): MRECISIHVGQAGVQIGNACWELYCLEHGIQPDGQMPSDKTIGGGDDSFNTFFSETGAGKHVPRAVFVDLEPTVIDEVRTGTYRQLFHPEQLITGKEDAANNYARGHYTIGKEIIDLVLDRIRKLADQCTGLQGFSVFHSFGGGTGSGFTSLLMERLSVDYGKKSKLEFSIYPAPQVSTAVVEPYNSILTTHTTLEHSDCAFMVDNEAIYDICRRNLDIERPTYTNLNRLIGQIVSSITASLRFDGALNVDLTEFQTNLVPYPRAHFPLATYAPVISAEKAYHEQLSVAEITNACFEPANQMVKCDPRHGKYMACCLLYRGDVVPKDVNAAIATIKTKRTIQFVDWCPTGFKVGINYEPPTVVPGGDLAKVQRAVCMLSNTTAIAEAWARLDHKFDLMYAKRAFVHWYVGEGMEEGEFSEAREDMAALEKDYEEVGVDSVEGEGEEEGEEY
T1 sequence (P02554 whole entry): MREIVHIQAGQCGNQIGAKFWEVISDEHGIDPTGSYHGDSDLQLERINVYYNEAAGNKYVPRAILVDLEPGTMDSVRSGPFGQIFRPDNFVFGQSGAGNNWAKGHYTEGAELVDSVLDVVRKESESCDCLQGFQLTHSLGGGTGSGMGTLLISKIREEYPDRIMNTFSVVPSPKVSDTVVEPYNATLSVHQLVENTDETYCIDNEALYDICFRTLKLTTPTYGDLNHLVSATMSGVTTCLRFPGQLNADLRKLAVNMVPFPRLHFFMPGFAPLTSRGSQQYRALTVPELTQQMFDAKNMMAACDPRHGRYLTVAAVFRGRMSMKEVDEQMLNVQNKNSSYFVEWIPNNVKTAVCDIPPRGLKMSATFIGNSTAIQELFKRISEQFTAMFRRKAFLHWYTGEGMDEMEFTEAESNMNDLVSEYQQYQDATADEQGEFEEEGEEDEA

Row | SMILES | IC50 ([1]; MTT, 72 h exposure, ± SD) [µM] | CSI AR230 (cancer selectivity index) ([1]; IC50(3T3)/IC50(AR-230)) | Initial Rate of the Exponential Phase, Signal Response (porcine brain tubulin) [a.u.s^−1 × 10^−6] | Lag Time (porcine brain tubulin) | IC50 ([2]; MCF7, MTT, 72 h exposure, ± SD) [µM] | CSI MCF-7 (cancer selectivity index) ([2]; IC50(3T3)/IC50(MCF-7)) | IC50 [3] [µM] | CSI AR230 (cancer selectivity index) ([1]; IC50(CCL-1)/IC50(AR-230)) | IC50 [4, 5] [µM] | lag time of tubulin polymerization (porcine brain tubulin) | CSI MCF-7 (cancer selectivity index) ([2]; IC50(CCL-1)/IC50(MCF-7)) | IC50 ([1]; 72 h) [µM] | IC50 ([2]; MCF7, 72 h) [µM] | IC50 ([4]; Fibroblast) [µM]
1 | Oc1ccccc1/C=N/Nc1nc2ccccc2[nH]1 [Compound 1a] | 21.2 ± 2.3 | ≈9.6 | 8.77 | 1390 s | 18.7 ± 1.1 | ≈11 | 204 ± 5.1 |  |  |  |  |  |  | 
2 | Oc1cccc(/C=N/Nc2nc3ccccc3[nH]2)c1O [Compound 1b] | 3.3 ± 0.3 | ≈18.4 | 13.4 | 1400 s and 1461 s | 64.5 ± 6.2 | ≈1 | 61.1 ± 1.8 |  |  |  |  |  |  | 
3 | Oc1ccc(/C=N/Nc2nc3ccccc3[nH]2)cc1O [Compound 1d] | 61.8 ± 5.7 |  | 13.3 | 1400 s and 1407 s |  |  |  | ≈1.8 | 113 ± 9.1 |  |  |  |  | 
4 | COc1ccc(/C=N/Nc2nc3ccccc3[nH]2)cc1 [Compound 1f] | 19.4 ± 2.2 | ≈18.2 | 17.1 | 807 s | 11.2 ± 1.3 | ≈31.6 | 355 ± 5.3 |  |  |  |  |  |  | 
5 | COc1cccc(OC)c1/C=N/Nc1nc2ccccc2[nH]1 [Compound 1g] | 11.5 ± 1 | ≈22.6 | 10.7 | 1000 s | 7.9 ± 2.1 | ≈33 | 261 ± 4.7 |  |  |  |  |  |  | 
6 | COc1cc(/C=N/Nc2nc3ccccc3[nH]2)cc(OC)c1 [Compound 1h] | 5.9 ± 0.9 | ≈56.7 | 23.1 | 1090 s | 4.6 ± 0.7 | ≈72.8 | 335 ± 7 |  |  |  |  |  |  | 
7 | COc1cc(/C=N/Nc2nc3ccccc3[nH]2)cc(OC)c1OC [Compound 1i] | 1.7 ± 0.3 | ≈41.7 | 20.6 | 988 s | 1.2 ± 0.2 | ≈59.1 | 71 ± 2.4 |  |  |  |  |  |  | 
8 | COc1cccc(/C=N/Nc2nc3ccccc3[nH]2)c1O [Compound 1j] | 1.1 ± 0.2 |  | 16.9 | 1200 s | 6.4 ± 1.2 |  |  | ≈ 363; also recorded: ≈363.6 | > 400 | more than 20 min | > 50 |  |  | 
9 | COc1ccc(/C=N/Nc2nc3ccccc3[nH]2)c(O)c1 [Compound 1k] | 0.9 ± 0.1 |  | 9.7 | 1295 s | 1.5 ± 0.3 |  |  | ≈113 | 102 ± 7.3 | more than 20 min | ≈67.8 |  |  | 
10 | COc1ccc(/C=N/Nc2nc3ccccc3[nH]2)cc1O [Compound 1l] | 16.8 ± 3.4 | ≈8 | 16 | no lag phase | 27.6 ± 3.5 | ≈4.8 | 134.7 ± 1.3 |  |  |  |  |  |  | 
11 | COc1cc([C@@H]2c3cc4c(cc3[C@H](O)[C@H]3COC(=O)[C@H]23)OCO4)cc(OC)c1OC [Podophyllotoxin, reference compound] |  |  |  |  |  |  |  | ≈5.7 |  |  | ≈9 | 0.47 ± 0.09 | 0.3 ± 0.06 | 2.7
12 | COC(=O)Nc1nc2ccc(C(=O)c3cccs3)cc2[nH]1 [nocodazole, reference compound] |  |  | 52 | 935 s |  |  |  |  |  |  |  |  |  | 
13 | CC(=O)O[C@H]1C(=O)[C@@]2(C)[C@H]([C@H](OC(=O)c3ccccc3)[C@]3(O)C[C@H](OC(=O)[C@H](O)[C@@H](NC(=O)c4ccccc4)c4ccccc4)C(C)=C1C3(C)C)[C@]1(OC(C)=O)CO[C@@H]1C[C@@H]2O [paclitaxel, reference compound] |  |  | 167 | 151 s |  |  |  |  |  |  |  |  |  | 
